Active and inactive are the calls of the source. The rule behind the calls is not given here.
Key:
[1] = target: T1, Serine/threonine-protein kinase Chk1 (Homo sapiens) (UniProt O14757); experiment: Inhibition of hydroxyurea-induced CHK1 phosphorylation at S345 residue in human HCT116 cells at 20 uM treated for 8 hrs starting from 24 hrs post hydroxyurea addition by Western blot analysis; type: cell-based
T1 sequence (whole entry): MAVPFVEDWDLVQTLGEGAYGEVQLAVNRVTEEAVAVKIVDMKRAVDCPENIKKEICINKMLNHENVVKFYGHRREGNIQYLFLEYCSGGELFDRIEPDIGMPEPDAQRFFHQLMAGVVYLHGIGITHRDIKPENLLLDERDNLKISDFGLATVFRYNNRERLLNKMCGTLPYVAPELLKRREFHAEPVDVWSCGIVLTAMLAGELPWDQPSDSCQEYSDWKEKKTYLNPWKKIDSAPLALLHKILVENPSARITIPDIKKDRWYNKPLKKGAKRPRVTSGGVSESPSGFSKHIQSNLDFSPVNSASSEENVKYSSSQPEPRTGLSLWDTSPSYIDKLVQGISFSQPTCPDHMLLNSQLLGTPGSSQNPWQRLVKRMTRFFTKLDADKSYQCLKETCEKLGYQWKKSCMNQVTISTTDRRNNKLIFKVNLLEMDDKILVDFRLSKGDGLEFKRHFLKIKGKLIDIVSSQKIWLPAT

[2] = target: Bone morphogenetic protein receptor type-2 (Homo sapiens) (UniProt Q13873); experiment: Inhibition of human BMPR2 assessed as residual activity at 1 uM using MBP as substrate by [gamma-33P]-ATP assay relative to control
[3] = target: Fibroblast growth factor receptor 3 (Homo sapiens) (UniProt P22607); experiment: Inhibition of human FGFR3 assessed as residual activity at 1 uM using poly[Glu:Tyr] (4:1) as substrate by [gamma-33P]-ATP assay relative to control
[4] = target: Tyrosine-protein kinase TXK (Homo sapiens) (UniProt P42681); experiment: Inhibition of human TXK assessed as residual activity at 1 uM using EAIYAAPFAKKK as substrate by [gamma-33P]-ATP assay relative to control
[5] = target: SNF-related serine/threonine-protein kinase (Homo sapiens) (UniProt Q9NRH2); experiment: Inhibition of human SNRK assessed as residual activity at 1 uM using MBP as substrate by [gamma-33P]-ATP assay relative to control
[6] = target: T1, Serine/threonine-protein kinase Chk1 (Homo sapiens); experiment: Inhibition of hydroxyurea-induced CHK1 phosphorylation at S296 residue in human HCT116 cells at 20 uM treated for 8 hrs starting from 24 hrs post hydroxyurea addition by Western blot analysis; type: cell-based
[7] = target: Casein kinase I isoform epsilon (Homo sapiens) (UniProt P49674); experiment: Inhibition of human CK1E assessed as residual activity at 1 uM using KRRRAL[pS]VASLPGL as substrate by [gamma-33P]-ATP assay relative to control
[8] = target: Protein kinase C gamma type (Homo sapiens) (UniProt P05129); experiment: Inhibition of human PKCgamma assessed as residual activity at 1 uM using ERMRPRKRQGSVRRRV as substrate by [gamma-33P]-ATP assay relative to control
[9] = target: Serine/threonine-protein kinase N2 (Homo sapiens) (UniProt Q16513); experiment: Inhibition of human PKN2 assessed as residual activity at 1 uM using KKLNRTLSVA as substrate by [gamma-33P]-ATP assay relative to control
[10] = target: Muscle, skeletal receptor tyrosine-protein kinase (Homo sapiens) (UniProt O15146); experiment: Inhibition of human MUSK assessed as residual activity at 1 uM using MBP as substrate by [gamma-33P]-ATP assay relative to control
TGF-beta receptor type-2 = TGF-beta receptor type-2 (Homo sapiens, UniProt P37173); experiment: Inhibition of human TGFBR2 assessed as residual activity at 1 uM using MBP as substrate by [gamma-33P]-ATP assay relative to control
[11] = target: TRAF2 and NCK-interacting protein kinase (Homo sapiens) (UniProt Q9UKE5); experiment: Inhibition of human TNIK assessed as residual activity at 1 uM using RLGRDKYKTLRQIRQ as substrate by [gamma-33P]-ATP assay relative to control
[12] = target: Mitogen-activated protein kinase 12 (Homo sapiens) (UniProt P53778); experiment: Inhibition of human p38gamma assessed as residual activity at 1 uM using MBP as substrate by [gamma-33P]-ATP assay relative to control
[13] = target: SRSF protein kinase 2 (Homo sapiens) (UniProt P78362); experiment: Inhibition of human SRPK2 assessed as residual activity at 1 uM using GRSRSRSRSR as substrate by [gamma-33P]-ATP assay relative to control
[14] = target: Macrophage-stimulating protein receptor (Homo sapiens) (UniProt Q04912); experiment: Inhibition of human RON assessed as residual activity at 1 uM using KKSRGDYMTMQIG as substrate by [gamma-33P]-ATP assay relative to control
[15] = target: Myosin light chain kinase (Homo sapiens) (UniProt Q32MK0); experiment: Inhibition of human MYLK3 assessed as residual activity at 1 uM using KKRPQRRYSNVF as substrate by [gamma-33P]-ATP assay relative to control
[16] = target: Serine/threonine-protein kinase Nek7 (Homo sapiens, UniProt Q8TDX7); experiment: Inhibition of human NEK7 assessed as residual activity at 1 uM using casein as substrate by [gamma-33P]-ATP assay relative to control
[17] = target: Inhibitor of nuclear factor kappa-B kinase subunit epsilon (Homo sapiens) (UniProt Q14164); experiment: Inhibition of human IKKepsilon assessed as residual activity at 1 uM using casein as substrate by [gamma-33P]-ATP assay relative to control
[18] = target: CDK2/Cyclin A2 (Homo sapiens) (UniProt P24941+P20248); experiment: Inhibition of human CDK2/cyclin-A assessed as residual activity at 1 uM using histone H1 as substrate by [gamma-33P]-ATP assay relative to control; type: protein-complex assay
[19] = target: Receptor-interacting serine/threonine-protein kinase 2 (Homo sapiens) (UniProt O43353); experiment: Inhibition of human RIPK2 assessed as residual activity at 1 uM using MBP as substrate by [gamma-33P]-ATP assay relative to control
[20] = target: NUAK family SNF1-like kinase 1 (Homo sapiens) (UniProt O60285); experiment: Inhibition of human ARK5 assessed as residual activity at 1 uM using KKKVSRSGLYRSPSMPENLNRPR as substrate by [gamma-33P]-ATP assay relative to control
[21] = target: Mitogen-activated protein kinase 8 (Homo sapiens) (UniProt P45983); experiment: Inhibition of human JNK1 assessed as residual activity at 1 uM using ATF2 as substrate by [gamma-33P]-ATP assay relative to control
[22] = target: Tyrosine-protein kinase HCK (Homo sapiens) (UniProt P08631); experiment: Inhibition of human HCK assessed as residual activity at 1 uM using KVEKIGEGTYGVVYK as substrate by [gamma-33P]-ATP assay relative to control
[23] = target: Serine/threonine-protein kinase ICK (Homo sapiens) (UniProt Q9UPZ9); experiment: Inhibition of human LCK2 assessed as residual activity at 1 uM using MBP as substrate by [gamma-33P]-ATP assay relative to control
Sequence of Serine/threonine-protein kinase ICK (Homo sapiens) (Q9UPZ9 whole entry): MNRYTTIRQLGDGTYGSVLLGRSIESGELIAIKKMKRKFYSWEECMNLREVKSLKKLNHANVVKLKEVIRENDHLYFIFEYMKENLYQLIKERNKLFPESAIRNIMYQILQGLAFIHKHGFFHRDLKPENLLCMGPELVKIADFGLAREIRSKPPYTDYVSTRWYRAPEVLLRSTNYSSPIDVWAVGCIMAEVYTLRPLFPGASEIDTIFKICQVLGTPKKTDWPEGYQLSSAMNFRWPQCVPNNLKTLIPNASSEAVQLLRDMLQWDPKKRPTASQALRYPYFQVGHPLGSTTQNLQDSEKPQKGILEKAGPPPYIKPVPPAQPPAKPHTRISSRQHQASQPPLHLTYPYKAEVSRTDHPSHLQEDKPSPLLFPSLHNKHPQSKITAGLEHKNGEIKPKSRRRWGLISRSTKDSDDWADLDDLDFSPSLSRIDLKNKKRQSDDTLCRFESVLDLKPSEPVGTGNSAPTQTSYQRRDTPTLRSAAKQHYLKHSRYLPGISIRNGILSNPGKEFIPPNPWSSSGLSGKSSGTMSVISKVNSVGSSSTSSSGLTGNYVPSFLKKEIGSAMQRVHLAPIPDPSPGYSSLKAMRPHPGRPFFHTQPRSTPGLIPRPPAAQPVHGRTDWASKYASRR

Sequence of Myosin light chain kinase (Homo sapiens) (Q32MK0 whole entry): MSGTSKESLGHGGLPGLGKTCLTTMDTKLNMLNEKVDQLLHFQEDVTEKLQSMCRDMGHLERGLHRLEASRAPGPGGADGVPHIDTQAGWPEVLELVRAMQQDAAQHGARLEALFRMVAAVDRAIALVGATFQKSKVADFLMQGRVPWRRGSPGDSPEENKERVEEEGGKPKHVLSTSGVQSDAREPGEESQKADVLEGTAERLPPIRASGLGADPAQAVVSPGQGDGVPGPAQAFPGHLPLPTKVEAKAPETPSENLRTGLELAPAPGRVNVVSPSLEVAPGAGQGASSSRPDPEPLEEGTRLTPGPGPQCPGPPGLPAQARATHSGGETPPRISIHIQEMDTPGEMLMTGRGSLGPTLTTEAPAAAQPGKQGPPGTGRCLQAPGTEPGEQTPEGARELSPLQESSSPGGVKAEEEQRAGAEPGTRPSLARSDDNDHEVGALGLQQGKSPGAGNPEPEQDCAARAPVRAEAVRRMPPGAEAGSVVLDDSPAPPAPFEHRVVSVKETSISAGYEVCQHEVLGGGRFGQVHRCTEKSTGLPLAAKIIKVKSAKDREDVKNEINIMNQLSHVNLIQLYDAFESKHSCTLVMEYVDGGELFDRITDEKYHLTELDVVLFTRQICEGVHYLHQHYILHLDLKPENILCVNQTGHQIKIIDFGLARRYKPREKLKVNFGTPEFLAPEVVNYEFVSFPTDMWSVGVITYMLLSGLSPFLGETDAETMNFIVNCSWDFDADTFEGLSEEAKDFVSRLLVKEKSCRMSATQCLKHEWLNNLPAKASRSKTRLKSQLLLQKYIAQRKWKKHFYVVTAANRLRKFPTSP
Sequence of TRAF2 and NCK-interacting protein kinase (Homo sapiens) (Q9UKE5 whole entry, looked up): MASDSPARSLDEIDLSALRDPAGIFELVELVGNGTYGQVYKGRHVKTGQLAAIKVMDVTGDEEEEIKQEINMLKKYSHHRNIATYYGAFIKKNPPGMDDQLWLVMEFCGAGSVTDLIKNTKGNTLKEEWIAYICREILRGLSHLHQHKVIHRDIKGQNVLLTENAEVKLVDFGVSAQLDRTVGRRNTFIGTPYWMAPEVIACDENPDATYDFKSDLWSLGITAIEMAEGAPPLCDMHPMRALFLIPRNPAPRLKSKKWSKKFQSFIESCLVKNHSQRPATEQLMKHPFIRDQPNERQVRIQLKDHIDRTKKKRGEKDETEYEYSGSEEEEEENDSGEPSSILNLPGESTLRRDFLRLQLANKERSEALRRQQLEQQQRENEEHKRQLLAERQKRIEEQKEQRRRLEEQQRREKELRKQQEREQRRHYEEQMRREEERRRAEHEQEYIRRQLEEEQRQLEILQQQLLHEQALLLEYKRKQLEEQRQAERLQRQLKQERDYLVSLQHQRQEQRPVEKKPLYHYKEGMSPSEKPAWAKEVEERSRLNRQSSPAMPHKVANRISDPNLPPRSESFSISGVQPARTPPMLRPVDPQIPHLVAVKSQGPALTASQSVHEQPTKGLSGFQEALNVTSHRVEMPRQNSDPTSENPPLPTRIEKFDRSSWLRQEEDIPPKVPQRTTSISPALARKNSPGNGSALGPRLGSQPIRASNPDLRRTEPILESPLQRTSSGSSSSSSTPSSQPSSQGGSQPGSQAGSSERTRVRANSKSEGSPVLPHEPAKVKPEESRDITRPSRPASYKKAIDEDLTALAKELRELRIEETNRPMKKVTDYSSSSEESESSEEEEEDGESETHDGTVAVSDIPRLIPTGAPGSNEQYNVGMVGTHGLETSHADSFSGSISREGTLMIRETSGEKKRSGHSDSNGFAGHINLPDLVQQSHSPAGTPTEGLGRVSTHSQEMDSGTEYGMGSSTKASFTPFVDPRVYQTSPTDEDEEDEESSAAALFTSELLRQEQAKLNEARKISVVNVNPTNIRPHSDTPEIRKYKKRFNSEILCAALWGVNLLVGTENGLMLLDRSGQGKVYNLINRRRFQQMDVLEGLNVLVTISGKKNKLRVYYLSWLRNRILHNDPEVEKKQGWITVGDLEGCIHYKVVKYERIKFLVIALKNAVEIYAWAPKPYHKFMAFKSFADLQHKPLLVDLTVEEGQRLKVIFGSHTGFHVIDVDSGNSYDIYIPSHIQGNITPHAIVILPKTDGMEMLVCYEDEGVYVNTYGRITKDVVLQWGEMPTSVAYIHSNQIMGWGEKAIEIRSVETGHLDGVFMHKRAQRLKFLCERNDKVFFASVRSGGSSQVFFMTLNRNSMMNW
Sequence of Inhibitor of nuclear factor kappa-B kinase subunit epsilon (Homo sapiens) (Q14164 whole entry): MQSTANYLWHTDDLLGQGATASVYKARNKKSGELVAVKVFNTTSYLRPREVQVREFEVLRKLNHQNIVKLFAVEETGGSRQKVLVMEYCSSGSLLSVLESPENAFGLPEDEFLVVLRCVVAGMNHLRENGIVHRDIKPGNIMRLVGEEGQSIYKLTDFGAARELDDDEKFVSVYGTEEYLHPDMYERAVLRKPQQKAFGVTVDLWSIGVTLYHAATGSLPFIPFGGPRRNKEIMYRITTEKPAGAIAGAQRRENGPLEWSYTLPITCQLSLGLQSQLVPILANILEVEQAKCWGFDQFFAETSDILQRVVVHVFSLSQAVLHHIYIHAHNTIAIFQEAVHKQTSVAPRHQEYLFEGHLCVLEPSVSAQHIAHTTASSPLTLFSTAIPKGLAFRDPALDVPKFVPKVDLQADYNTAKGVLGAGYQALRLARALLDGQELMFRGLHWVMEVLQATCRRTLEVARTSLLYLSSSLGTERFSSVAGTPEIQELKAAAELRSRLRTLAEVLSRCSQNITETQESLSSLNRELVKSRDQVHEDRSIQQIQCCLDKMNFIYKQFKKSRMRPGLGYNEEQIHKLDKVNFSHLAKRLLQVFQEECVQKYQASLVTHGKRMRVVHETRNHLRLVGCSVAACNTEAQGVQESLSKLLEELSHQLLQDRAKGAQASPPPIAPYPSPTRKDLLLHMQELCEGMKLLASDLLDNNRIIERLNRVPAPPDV
Sequence of Casein kinase I isoform epsilon (Homo sapiens) (P49674 whole entry, looked up, canonical isoform): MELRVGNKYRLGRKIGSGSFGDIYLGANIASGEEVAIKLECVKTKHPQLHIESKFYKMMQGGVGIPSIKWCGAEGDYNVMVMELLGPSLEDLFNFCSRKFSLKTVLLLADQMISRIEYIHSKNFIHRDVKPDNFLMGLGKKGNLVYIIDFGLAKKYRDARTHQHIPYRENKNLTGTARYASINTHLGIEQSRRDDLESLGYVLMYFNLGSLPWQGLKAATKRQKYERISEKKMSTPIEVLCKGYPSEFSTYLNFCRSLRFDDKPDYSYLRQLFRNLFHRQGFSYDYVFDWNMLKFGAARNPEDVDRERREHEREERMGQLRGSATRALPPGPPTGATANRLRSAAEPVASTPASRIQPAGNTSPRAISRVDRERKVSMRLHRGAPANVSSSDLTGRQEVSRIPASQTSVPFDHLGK
Sequence of Mitogen-activated protein kinase 12 (Homo sapiens) (P53778 whole entry): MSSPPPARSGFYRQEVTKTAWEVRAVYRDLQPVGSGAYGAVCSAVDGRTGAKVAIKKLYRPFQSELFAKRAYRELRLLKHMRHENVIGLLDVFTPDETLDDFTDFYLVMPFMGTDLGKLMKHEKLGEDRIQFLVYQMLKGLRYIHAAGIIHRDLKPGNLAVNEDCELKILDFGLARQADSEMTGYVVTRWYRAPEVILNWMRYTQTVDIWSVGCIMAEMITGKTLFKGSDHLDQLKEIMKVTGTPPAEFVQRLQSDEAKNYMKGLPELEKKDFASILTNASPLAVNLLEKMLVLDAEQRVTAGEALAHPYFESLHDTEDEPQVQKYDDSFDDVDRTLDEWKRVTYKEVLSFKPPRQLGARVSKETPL

Structure (SMILES): C(=C\c1ccccc1)/C[N+]12CN3CN(CN(C3)C1)C2
- inhibition [1]: Active
- Activity [2]: 96.8 to 98.9%
- Activity [3]: 93.8 to 94.8%
- Activity [4]: 93.5 to 93.8%
- Activity [5]: 79.8 to 81%
- inhibition [6]: Active
- Activity [7]: 90.1 to 93.2%
- Activity [8]: 94.5 to 96.3%
- Activity [9]: 95.9 to 108%
- Activity [10]: 89.6%
- Activity (TGF-beta receptor type-2): 111 to 119%
- Activity [11]: 89.3 to 93.7%
- Activity [12]: 93.7 to 94.8%
- Activity [13]: 107 to 111%
- Activity [14]: 93.3 to 94.8%
- Activity [15]: 92 to 96.4%

Structure (SMILES): ClC/C=C/C[N+]12CN3CN(CN(C3)C1)C2
- Activity [16]: 94.2 to 95.6%
- Activity [17]: 111 to 113%
- Activity [18]: 97.3 to 97.8%
- Activity [19]: 95.4 to 96.7%
- Activity [20]: 87.9 to 94.8%
- Activity [21]: 96 to 96.5%
- Activity [22]: 93.1 to 95.5%
- Activity [23]: 85.1 to 89.7%

Reference: ChEMBL document CHEMBL4325871 (Eur J Med Chem, 2019)
